According to patent US20160101076A1, “Use of Sumoylation Inhibitors for Treating Cancer” (priority 2013, published 2016):

What was measured:
IOWA-1T xenografts = test: IOWA-1T xenografts, animals gavaged; assay type: in vivo; conditions: nude mice inoculated with 1×10^6, 5×10^5 or 2.5×10^5 IOWA-1T cells, gavaged vs vehicle; p=0.025; FIG. 8D
Description: (§1) FIGS. 8A-8D. SUMO Inhibitors Repressed Outgrowth of Xenografts. FIG. 8A. […] FIG. 8B. Tumor-free survival of nude mice (n=5 per group) inoculated with BT20 cells with animals gavaged with AA vs. vehicle. FIG. 8C. IOWA-1T cells were pre-treated with anacardic acid (AA) or vehicle and mice were followed until requiring euthanasia due to tumor size (Overall Survival). […] FIG. 8D. Nude mice were inoculated with 1×10^6, 5×10^5, or 2.5×10^5 IOWA-1T cells and animals were gavaged with either vehicle or AA; vehicle-gavaged mice developed tumors in 5, 10 and 12 days, respectively.
(§2) To address the effects of GA and AA on tumor initiation, BT20 cells were pretreated with GA or AA compared to vehicle prior to inoculation of xenografts in nude mice. As noted in FIG. 8A, pretreatment of the cells repressed the formation of tumor xenografts, whereas, vehicle treated cells formed xenografts with a median time of 8 weeks. […] We created a breast carcinoma cell line (IOWA-1T) from the basal tumor-derived cells used in FIG. 6A. The IOWA-1T cell line rapidly forms locally advanced tumors in nude mice. Identical experiments using the IOWA-1T basal cell line confirmed that either pre-treating the cancer cells or gavaging animals with AA repressed tumor initiation of xenografts (FIGS. 8C and 8D).
Statistical analysis was performed using the two-sided Student's T-test for continuous variables. […]

[1] = test system: Colorectal cancer stem cells (CSC); test: Stem cell markers in primary colorectal cancer stem cells (qPCR, Western blot); assay type: cell-based; conditions: 10 μM, 48 hours
Method: […]: qPCR, CD44 downregulation after treatment of colorectal CSC with anacardic acid, 48 h. […]: qPCR, ALCAM (activated leucocyte cell adhesion molecule) after treatment of colorectal CSC with anacardic acid, 48 h. FIG. 17C: qPCR, EPCAM (epithelial cell adhesion molecule) after treatment of colorectal CSC with anacardic acid, 48 h. FIG. 17D: Western blot, CD44 downregulation after treatment of colorectal CSC with anacardic acid, 48 h.
Informed consent primary colorectal tumor material was obtained during operation and was transferred to lab. Colorectal cancer stem cells (CSC) were isolated accordingly Cammareri et al, 2008 and treated with 10 μM anacardic acid within 48 hours.

BT20 xenografts = test: BT20 xenografts, animals gavaged; assay type: in vivo; conditions: BT20 xenografts in nude mice, animals gavaged vs vehicle; FIG. 8B
Description: as §1
as §2, with “8D). […]” for “8D).”

[2] = test system: SUMO-conjugated proteins, SUMO-conjugated form of TFAP2A in BT549 cells; test: Western blot of SUMO-conjugated proteins in BT549 cells; assay type: cell-based, human; conditions: vs vehicle
Method: FIG. 16. Anacardic Acid Inhibits SUMO-conjugated Proteins. Western blots were performed on protein extracts of BT549 cells treated with vehicle (V) or anacardic acid (AA) and reacted with antibodies for SUMO1, TFAP2A or GAPDH, as indicated. Equal amounts of protein were loaded in each lane. […] GAPDH control indicates equal loading of protein. MW indicates molecular weight markers.
Western blots were performed as previously described (Cyr et al., 2014; Kulak et al., 2013). For immunoprecipitations anti-TFAP2A, anti-GFP antibody (Life Technologies) or IgG (#sc-2025, Santa Cruz Biotechnology) were cross-linked with Dynabeads protein A (Life Technologies). MCF7 protein was incubated with Dynabeads protein A-Abs complex, protein complexes were washed with DPBS (Gibco) with 0.01% Tween (Research Products International Corp.), and eluted with SDS loading buffer.
Cells were plated ([…]/10 cm2) and treated with 10 μM gingolic or anacardic acid (Sigma) for 2-4 days and collected for qPCR, Western blot and FACS analysis.

**Q.** Which results are given for `CCCCCCCCCCCCCCCc1cccc(O)c1C(=O)O` [AA, Anacardic acid (C15:0)]?
**A.** tumor formation (IOWA-1T xenografts): failed to form tumors; CD44 by qPCR ([1]; FIG. 17A): down regulated; ALCAM by qPCR ([1]; FIG. 17B): down regulated; EPCAM by qPCR ([1]; FIG. 17C): down regulated; CD44 by Western blot ([1]; FIG. 17D): reduction; tumor formation (tumor-free survival) (BT20 xenografts): failed to form tumors; SUMO conjugated form of TFAP2A ([2]; Western blot FIG. 16): inhibited; overall expression of TFAP2A ([2]; Western blot FIG. 16): decrease slightly; SUMO conjugation of proteins globally ([2]; Western blot SUMO1 antibody, FIG. 16): inhibited
